Experimental data taken from patent US20190183910A1, “ENHANCING DNA REPAIR AND PREVENTING AGING AND ITS CONSEQUENCES IN REPRODUCTIVE AND OTHER CELLS” (NEW YORK MEDICAL COLLEGE, priority 2016, published 2019).

Experiments:
mouse sperm [1] = test: DNA DSBs by γH2AX expression in S1P-treated mouse sperm; assay type: cell-based; settings: for DNA DSBs as reported by γH2AX expression: culture 1 hour, n=9, mean±SEM
Protocol: (§1) Treatment was performed with genotoxic stress (1 mM H2O2), S1P (200 μM), and S1P with genotoxic stress and control in culture for one hour. Also, the use of an ATM inhibitor was utilized (10 μM) (KU-55593, Abcam) (Li et al., 2014). We assessed DNA damage, apoptosis, and chromatin integrity. We also studied the DNA DSB repair gene expression by qRT-PCR in sperm lysates.
DNA damage assessment of testicular tissue from mice utilized a Ser139 phosphorylation-specific γH2AX antibody (IHC-00059; Bethyl Laboratories) performed with enzymatic diaminobenzidine staining (Vector). Histone H2AX, one of the several variants of the nucleosome core histone H2A, becomes phosphorylated on Ser139 in response to DSBs (γH2AX). Within seconds of DSB formation, γH2AX foci are formed at the site of DNA damage, which can be detected by confocal microscopy or immunohistochemistry to quantify DNA damage. Foci of γH2AX represent DDR in a 1:1 manner, enabling sensitive quantification of potential DSBs (Katsube et al., 2014). Primordial follicles containing a γH2AX-positive oocyte were considered to be DNA-damaged (Rogakou et al., 1998). Sperm were assessed for DNA damage with antibody to γH2AX (613402; BioLegend) and secondary antibody Alexa Fluor 488 (A-11029; Invitrogen), followed by nuclear counterstaining with diamidino-2-phenylindole (DAPI; Fisher Scientific). Immunofluorescence for SD sperm samples was measured by FACScan flow cytometer (Becton-Dickinson) or laser scanning cytometry (Halicka et al., 2008).

BRCA1 = test: qRT-PCR DNA DSB repair gene expression in mouse sperm lysates, BRCA1; assay type: cell-based
Protocol: as §1
(§2) Sperm pellets previously snap-frozen in PBS were thawed. RNA was extracted using the trizol method (Rio et al., 2010). The quality and quantity of the RNA were measured with NanoDrop 2000 from Thermo Scientific. RNA (2 μg) from each sample was taken for reverse transcription with dTVN and N9 primers and SuperScript III reverse transcriptase, all procured from Invitrogen. The resulting cDNA was used to perform real-time qPCR with SYBR Green on an Applied Biosystems 7900HT Real-Time PCR machine was used. To determine the relative expression of various DNA repair genes in mouse sperm, we used the ΔΔCt method, which makes use of the expression of housekeeping genes. GAPDH was used as housekeeping gene. Primers were procured from Integrated DNA technologies (IDT) (Table 3).

RAD50 = test: qRT-PCR DNA DSB repair gene expression in mouse sperm lysates, RAD50; assay type: cell-based; settings: S1P treatment, no ATM inhibitor
Protocol: as §1, §2

RAD51 = test: qRT-PCR DNA DSB repair gene expression in mouse sperm lysates, RAD51; assay type: cell-based
Protocol: as §1, §2

mouse sperm [2] = test: Alkaline comet assay on mouse sperm; assay type: cell-based; settings: for percent tail DNA, alkaline comet: mouse sperm, n=9, mean±SEM
Protocol: as §1
Slides were prepared 48 hours prior to experimentation by coating normal glass microscope slides with 500 μl normal melting point agar (0.5% w/v in PBS) solution and left to dry at room temperature for no less than 48 hours. Then, 10 μl of mouse sperm suspension was mixed with 90 μl of 0.5% LMPA. Then this 100 μl solution was added to the NMPA-coated slides. Coverslips were added and slides were placed on a metallic tray on ice and in the dark for 5 minutes. The cover slips were removed and a 90 μl layer of LMPA was added. Cover slips were subsequently replaced before the LMPA hardened. Slides were then kept in the dark on ice again for another 5 minutes. After ten minutes, the cover slips were removed and slides were placed in staining jars containing ice cold lysing solution (2.5 M NaCl, 200 mM NaOH, 100 mM EDTA, 10 mM Trizma Base, 1% Triton X-100 and 10% DMSO [pH 10]) for 1.5 hours at 4° C. in a dark place.
After this lysis step, the slides were washed three times for 5 minutes with TE buffer (pH 8.0), and then placed flatly in the electrophoresis tank face up for 30 minutes to achieve the unwinding of the DNA. The alkaline electrophoresis buffer in this tank included 300 mM NaOH and 1 mM EDTA [pH13]. This incubation period was used to achieve the alkaline unwinding of the DNA. Electrophoresis was then performed at 25 V, 300 mA for 30 minutes. After this, slides were washed twice in neutralization buffer (0.4 M Tris, pH 7.5) for 5 minutes each. Before analysis could occur, the sperm within the slides needed to be fixed by draining the slides well on paper towels and then subjecting them to two 10 minute washes in ethanol, and then air drying at room temperature for 5 minutes. Ethidium bromide (50 μl at 10 μg/ml in water) was then added on the slide, and sealed with a cover slip. Slides were kept moist, wrapped in aluminum foil to prevent light exposure, and stored at 4° C. until analysis (Williams et al., 2014).
Slides from both alkaline and neutral comets were imaged by fluorescence microscopy using a Nikon OPTIPHOT microscope. ImageJ was used for comet assay analysis, which calculated tail length, tail moment, and % of DNA in the tail. […] To analyze the slides, an oval around the sperm head was drawn and calculated and then an oval around the sperm tail was drawn and calculated. […] It was calculated as the Pythagorean distance between two points. […]

male germ cells = settings: S1P treatment to mouse testes (Otala et al., 2004); cited from earlier work
oocytes = settings: ex vivo (Morita et al., 2000; Tilly and Kolesnick, 2007); cited from earlier work

SMILES: CCCCCCCCCCCCC/C=C/[C@@H](O)[C@@H](N)COP(=O)(O)O [S1P, sphingosine 1 phosphate]
- DNA DSBs as reported by γH2AX expression (mouse sperm [1]; S1P (200 μM) in the presence of genotoxic stress (1 mM H2O2)): 8.29±1.45
- DNA DSBs as reported by γH2AX expression (mouse sperm [1]; S1P alone (200 μM)): 8.94±1.48
- DNA integrity (protective effect of S1P) (mouse sperm [1]; in the presence of an ATM inhibitor (10 μM KU-55593), n=9): ATM inhibition reversed the protective effects
- BRCA1 expression (qRT-PCR) (BRCA1; S1P alone, n=9, mean±SEM): 0.471±0.602
- BRCA1 expression (qRT-PCR) (BRCA1; S1P in the presence of genotoxic stress, n=9, mean±SEM): 0.755±0.378
- BRCA1 expression (qRT-PCR) (BRCA1; S1P treatment with ATM inhibitor): blocked the S1P induced increase
- RAD50 expression (qRT-PCR) (RAD50): no significant difference
- RAD51 expression (qRT-PCR) (RAD51; S1P treatment, no ATM inhibitor): no significant difference
- RAD51 expression (qRT-PCR) (RAD51; S1P with genotoxic stress, with ATM inhibitor, n=8, mean±SEM): 0.015±0.056
- DNA damage, alkaline comet (mouse sperm [2]; S1P-treated mouse sperm with ATM inhibitor): no significant difference
- percent tail DNA, alkaline comet (mouse sperm [2]; S1P alone, without ATM inhibitor): 16.79±0.89%
- percent tail DNA, alkaline comet (mouse sperm [2]; S1P with H2O2, without ATM inhibitor): 16.8±0.87%
- male germ cell loss by radiation-induced injury (male germ cells): decreased
- ceramide induced apoptosis in oocytes (oocytes): block ceramide induced apoptosis
